Experimental data taken from patent US5041535A, “Antileukemic and immunostimulant peptides” (Richter Gedeon Vegyeszeti Gyar Rt., priority 1986, dated 1991).
Square brackets hold non-standard residues; d marks the D form. Peptide text beside a SMILES is read from it. pGlu = O=C1CC[C@@H](C(=O)O)N1

Legend:
[1] = system: human K-562 erythroleukaemical cell-line; assay: Inhibition of the proliferation of tumor cells (K-562); type: cell-based; settings: 72nd hour after treatment, percentage of the control
Description: In the test human K-562 erythroleukaemical cell-line is used (Karolinska Institute, Stockholm). Incubation is carried out in a nutrient medium designated RPMI-1640 (manufactured by Flow, Great Britain) comprising 10% of foetal calf serum, at a temperature of 37° C., in a humidified incubator containing 3% of carbon dioxide, in plastic dishes. Every point of measurement corresponds to the average of the data measured in three dishes, each. At the beginning of the test the dilution amounts to 0.5×10^5 cells/ml. Treatment is carried out 24 hours after dilution in a manner that the medium is not changed after the treatment. The cells are counted for 96 hours after dilution every 24th hour wit the aid of a Buerker chamber.
Under the effect of the peptide in the 24th hour after treatment the cell number stagnates and later it increases to a very small extent. […] The tumor-cell division inhibiting effect of the new peptides is summarized in Table 1 (72 hours after treatment). The rate of inhibition is expressed in the percentage of the control. It clearly appears from the data of the Table that the tested peptides inhibit the proliferation of human K-562 erythroleukaemic cells.

[2] = system: lymphocytes inhibited by Azathioprine; assay: E-rosetta test inhibited by Azathioprine; type: cell-based
Description: Inhibition of the proliferation of T-lymphocytes is tested in the E-rosetta test inhibited by Azathioprine [6-(1-methyl-4-nitroimidazole-5-yl-thio)-purine; Thymus 1, 195 (1980)].
To 200 μl of a healthy lymphocyte cell-suspension 500 μl/ml of Azathioprine and 200 μl of a separate dilution of the test compound in HBBS buffer (manufacturer: Flow, Great Britain) are added (concentration range: 10^-3 to […]). The mixture is incubated at a temperature of 37° C. in air containing 5% of carbon dioxide for 60 minutes, whereupon 200 μl of a 1% sheep erythrocyte suspension are added. The mixture thus-obtained is centrifuged at 1,000 r.p.m. for 5 minutes, the supernatant is removed by decanting and in the suspension the lymphocytes forming E-rosetta are counted under a microscope from at least 400 cells.
Under the effect of the peptides the E-rosetta forming activity of the lymphocytes inhibited by Azathioprine increases to different extent. […] It appears from the data of Table 2 that the tested peptides increase the E-rosetta forming capacity of inhibited lymphocytes, i.e. the peptides of the present invention show immunostimulant effect.

[3] = system: antibody production inhibited by cyclophosphamide; assay: Effect on antibody production in mice treated with cyclophosphamide; type: in vivo, CELP mice; settings: cyclophosphamide 100 mg/kg i.p., titer on 6th day
Description: The effect on in vivo antibody production is tested on CELP mice treated with a 100 mg/kg body weight dose of cyclophosphamide {2-[bis-(2-chloroethyl)-amino]-tetrahydro-2H-1,3,2-oxaza -phosphorine-2-oxide; method: Z. Naturforsch. 35B, 1476 (1980)}. The mice are intraperitoneally immunized with a 1% sheep erythrocyte suspension previously washed three times with a 0.9% sodium chloride solution after 10 minutes of centrifuging at 2,500 r.p.m. Simultaneously with immunization carried out on the 0. day, the activity of the immune system is suppressed by means of treatment with a 100 mg/kg i.p. does of cyclophosphamide. On the 3rd day of the test the peptides are administered to the animals intraperitoneally in a dose of 5, 50 and occasionally 100 mg/kg respectively. On the 6th day of the test blood is taken retroorbitally from the mice and the anti-sheep erythrocyte titer of the serum is determined. […] The effect of the peptides is expressed as percentage of the relief of inhibition (G %).

[4] = system: inflammation induced by oxozolone; assay: Dermatitis test induced with oxazolone; type: in vivo, CFLP mice; settings: 24th hour after treatment, ear weight increase
Description: In this test a modified pharmacological model of D. P. Evans et al. [Br. J. Pharmac. 43, 403-488 (1971)] is used.
The abdominal skin of male CFLP mice weighing 20-22 g is painted after the removal of the hair with 0.1 ml of a 2% solution of oxazolon (4-ethoxymethyl-2-phenyl-oxazoline, manufacturer Sigma) in sunflower oil. On the right ear of the test animals 7 days after sensitization (painting) inflammatory reaction is induced with the aid of 10 μl of a 2% acetonous oxazolone solution and simultaneously the animals are treated with a 1 or 2 mg/kg, respectively, i.p. does of the test compound. The test compound is dissolved in a physiological sodium chloride solution in such a concentration that the active ingredient content corresponding to the dose should be dissolved in a volume of 0.5 ml/10 g animal body weight.
The antiinflammatory effect is determined as follows: the animals are sacrificed in the 24th hour after treatment, whereupon the right and left ears are cut off. The percentual weight increase of the right ear related to the left ear is characteristic of the rate of inflammation induced during the test, while the percentual reduction of weight increase of the treated animals related to the untreated control is proportional to the antiinflammatory effect. In Table 4 the reduction of weight increase (antiinflammatory effect) achieved by the test compounds is disclosed, as the percentage of the untreated control.

[5] = peptide 5 mg/kg i.p. on 3rd day
[6] = peptide 50 mg/kg i.p. on 3rd day

| SMILES | Inhibition of the proliferation of K-562 cells, inhibition (c %) ([1]; peptide 1/ug/ml) [%] | Inhibition of the proliferation of K-562 cells, inhibition (c %) ([1]; peptide 10/ug/ml) [%] | Relief of inhibition (R %) of E-rosetta forming activity ([2]; peptide 10^-3 mole/l) [%] | Relief of inhibition (R %) of E-rosetta forming activity ([2]; peptide 10^-5 mole/l) [%] | Relief of inhibition (R %) of E-rosetta forming activity ([2]; peptide 10^-7 mole/l) [%] | Relief of inhibition (R %) of E-rosetta forming activity ([2]; peptide 10^-9 mole/l) [%] | Relief of inhibition (R %) of E-rosetta forming activity ([2]; peptide 10^-11 mole/l) [%] | Restoration of primary immune answer, G % [3, 5] [%] | Restoration of primary immune answer, G % [3, 6] [%] | Inhibition of inflammation induced by oxozolone, inhibition as % of control ([4]; 1 mg/kg i.p.) [%] | Inhibition of inflammation induced by oxozolone, inhibition as % of control ([4]; 2 mg/kg i.p.) [%] | Restoration of primary immune answer, G % ([3]; peptide 100 mg/kg i.p. on 3rd day) [%] |
| --- | --- | --- | --- | --- | --- | --- | --- | --- | --- | --- | --- | --- |
| NCCCC[C@H](NC(=O)[C@H](CCCCN)NC(=O)[C@H](CCC(=O)O)NC(=O)[C@@H](N)CCCCN)C(=O)O [Peptide 10, Lys-GIu-Lys-Lys-OH] (H-KEKK-OH) | 28 | 40 | 22.9 | 16.3 | 25.2 | 21.1 | 26.6 | 15.5 | 37.7 | 22 | 79 |  |
| NCCCC[C@H](NC(=O)[C@H](CCC(=O)O)NC(=O)[C@@H]1CCC(=O)N1)C(N)=O [Peptide 2, Glp-Glu-Lys-NH2] ([pGlu]-Glu-Lys-NH2) | 40 | 55 | 25.4 | 20.2 | 31.7 | 24.3 | 37.1 | 23.0 | 3.0 |  |  |  |
| N=C(N)NCCC[C@H](N)C(=O)N[C@@H](CCCCN)C(=O)N[C@@H](CCC(=O)O)C(=O)O [Peptide 5, Arg-Lys-GIu-OH] (H-Arg-Lys-Glu-OH) | 40 | 48 | 24.5 | 24.6 | 24.7 | 24.0 | 27.5 | 61.5 | 76.9 |  |  |  |
| CC(C)[C@H](NC(=O)[C@H](CC(=O)O)NC(=O)[C@H](CCCCN)NC(=O)[C@@H](N)CCCNC(=N)N)C(=O)O [B, Arg--Lys--Asp--Val, reference compound] (H-RKDV-OH) |  | 4 | 35.4 | 35.4 | 46.4 | 32.5 | 34.0 |  |  |  |  |  |
| N=C(N)NCCC[C@H](N)C(=O)N[C@@H](CCCCN)C(=O)N[C@@H](CC(=O)O)C(N)=O [Peptide 4, Arg-Lys-Asp-NH2] (H-Arg-Lys-Asp-NH2) | 25 | 50 | 29.7 | 30.0 | 18.7 | 23.9 | 18.5 |  |  | 27 |  | 28.5 |
| CC(C)C[C@H](N)C(=O)N1CCC[C@H]1C(=O)N[C@@H](C)C(=O)NCC(=O)O [Peptide 14, Leu-Pro AIa-Gly-OH] (H-LPAG-OH) | 45 | 70 |  |  |  |  |  | 34.0 | 56.8 | 55 |  |  |
| CC(C)C[C@H](N)C(=O)N[C@H](C(=O)N[C@@H](C)C(=O)O)C(C)C [Peptide 7, Leu-VaI-AIa-OH] (H-Leu-Val-Ala-OH) | 38 | 52 |  |  |  |  |  | 73.3 | 100.0 |  |  |  |
| CC(C)[C@H](NC(=O)[C@H](CC(=O)O)NC(=O)[C@H](CCCCN)NC(=O)[C@@H](N)CCCN=C(N)N)C(=O)N[C@@H](Cc1ccc(O)cc1)C(=O)O [A, Arg--Lys--Asp--Val--Tyr, reference compound] (H-RKDVY-OH) |  | 32 | 31.7 | 29.3 | 38.7 | 30.0 | 19.4 |  |  |  |  |  |
| N=C(N)NCCC[C@H](N)C(=O)N[C@@H](CCCCN)C(=O)N[C@@H](CCC(=O)O)C(N)=O [Peptide 3, Arg-Lys-Glu-NH2] (H-Arg-Lys-Glu-NH2) | 40 | 52 | 24.3 | 22.6 | 15.6 | 24.8 | 17.0 | 78.1 | 47.6 |  |  |  |
| CC(C)C[C@H](NC(=O)[C@@H](N)CCC(=O)O)C(=O)N[C@H](C(=O)N[C@@H](C)C(=O)O)C(C)C [Peptide 13, GIu-Leu-VaI-AIa-OH] (H-ELVA-OH) | 55 | 65 |  |  |  |  |  | 20.9 | 32.8 | 40 |  |  |
